Experimental data from patent publication US9618453B2, “Aggregation induced emission of fluorescent bioprobes and methods of using the same” (THE HONG KONG UNIVERSITY OF SCIENCE AND TECHNOLOGY, priority 2011, dated 2017).
Each block holds one compound with its values, some of them ahead of it.

How the values were obtained:
BSA (35 Cys) = BSA (35 Cys) (Bos taurus, UniProt P02769); assay: Fluorescent labeling of Cys residues of protein with TPEMBR, SDS-PAGE; parameters: species or system bovine; details: series of dye/thiol ratios
Method: 2.5 μL Tris-HCl (1 M), 2.5 μL TCEP (20 mM), 5 μL BSA (1 mg/mL, 15 μM), and 30 μL urea (8 M in water) was added to a 1.5 mL Eppendorf tube and mixed well. The mixture was incubated at room temperature for 30 min to pre-reduce the disulfide bonds with TCEP. Then, 10 μL of the TPEMBR DMSO stock solution (2.5 mM 5×) was added to the system and made the final volume 50 μL. The reaction mixture was incubated for 3 hours at 50° C. in an Eppendorf Thermomixer. Then, samples were cooled either to room temperature for instant use or frozen for eventual use.
In order to ensure that the Cys residues were sufficiently labeled with TPEMBR, a longer reaction time (usually overnight) at or below room temperature was required. Alternatively, the reaction time could be reduced if labeling was carried out at 50° C. To verify the time-dependence of labeling efficiency, bovine serum albumin (BSA) samples were labeled with TPEMBR for different times ranging from 10 min to 4 h and analyzed by SDS-PAGE. The fluorescence intensity of the labeled BSA increased as the reaction time was extended. The maximum intensity under specific labeling conditions was observed after 3 h and remained unchanged even with an additional 1 h of reaction time (FIGS. 11a and 11b). […] The time-dependent labeling effect provides a way to determine the desirable DOL according to different applications by simply controlling the labeling time. Meanwhile, a lower temperature labeling process with a longer reaction time could be a better choice to obtain fluorescent proteins while maintaining their native structures.
BSA samples were subjected to labeling with different dye concentrations. The SDS-PAGE fluorescence intensity of labeled BSA increased with increasing dye concentration. […] Further increasing the dye concentration could give higher fluorescence intensity due to nonspecific labeling. Clearly, the DOL of protein samples can be controlled by varying the dye concentration.
Specific labeling of Cys residues by TPEMBR was examined through the labeling of proteins with different Cys contents. BSA (35 Cys), yeast enolase (single Cys) and horse myoglobin (0 Cys) were labeled with 0.5 mM of TPEMBR, respectively. The corresponding fluorescent products were analyzed on gel. […] The results further confirmed the specificity of TPEMBR to Cys residue when the working concentration of 0.5 mM was used.
BSA was labeled by each dye with a series of varying dye/thiol ratios. After the electrophoresis, the gel fluorescent image was taken under UV excitation and the fluorescence intensity was obtained from three independent experiments. Fluorescence intensities normalized with the sample with the lowest dye concentration are plotted versus the dye/thiol ratio (FIG. 16). […] This self-quenching effect is inevitable for self-quenching dyes such as 5-BMF and limits these dyes' application on quantification of proteins. In contrast, detection and quantification of proteins with high contents of Cys can be easily achieved by using AIE active molecules such as TPEMBR.

[1] = target: bovine serum albumin (BSA) (Bos taurus, UniProt P02769); assay: SDS-PAGE staining of BSA with TPENCS (prestaining, poststaining), compared with CBB and FITC; details: for LOD / limit of detection (LOD): BSA on SDS-PAGE gel, CBB restaining of the same gel; for LOD: TPENCS poststaining; for limit of detection (LOD): TPENCS prestaining; for LOD on nitrocellulose membrane: after transfer from gel; for self-quenching effect versus F/P ratio: equal amount of BSA, series of dye concentrations
Method: The protein samples were treated with denaturizing 4× sample buffer containing 62.5 mM Tris (pH 8.5), 20% (v/v) glycerol, 4% SDS (w/v), and 3% (w/v) DTT for 5 min at 85˜95° C. in Protein Lobind Eppendorf cups. Serial dilutions of the proteins were labeled and loaded onto the gel lanes. Electrophoresis was carried out on self-cast polyacrylamide mini-gels (1 mm thick) using a discontinuous buffer system. The separation gel (pH 8.8) contained 12% polyacrylamide. The stacking gel (pH 6.8) contained 4% polyacrylamide. Both gels have an acrylamide/bis ratio of 37.5:1. The running buffer contained 25 mM Tris (pH 8.6), 192 mM glycine and 0.1% SDS (w/v) in water. All solutions were freshly prepared prior to use. SDS-PAGE was carried out on a vertical polyacrylamide gel system at a current of 15 mA until the protein bands reached the interface of the separating gel. Separation was performed at 100 V for two hours.
Fluorescence prestaining of proteins for SDS-PAGE gels was applied prior to the denaturation step. About 1 mg of the protein was dissolved in 1 mL of 0.1 M sodium bicarbonate buffer solution (15 μM). 10 μL of TPENCS DMSO stock solution (5 mM) was added to 100 μL protein solution. The pH was optimized to ˜9 by adding 1 M sodium bicarbonate buffer. The reaction mixture was incubated for 2 h at 37° C. in an Eppendorf Thermomixer. Then, samples were cooled either to room temperature for instant use or frozen for eventual use.
2.5 g of Coomassie blue R250 was dissolved in 1000 mL of 50% (v/v) methanol, 10% (v/v) acetic acid, and 40% (v/v) water with stirring as needed. The solution was filtered to remove any insoluble material. The final concentration of Coomassie blue R250 was 0.25% (w/v). After electrophoresis, the apparatus was disassembled and the gel was immerged into CBB solution. The gel was stained at room temperature overnight with gentle agitation. The Coomassie stain was removed by aspiration after staining. The gel was then immerged into the destaining solution composed of 50% (v/v) methanol, 10% (v/v) acetic acid, and 40% (v/v) water which allowed the gel to destain with gentle agitation. The destaining step was repeated several times, removing destaining solution at each change by aspiration. The destaining was continued until the protein bands were seen clearly without any background staining of the gel.
The protocol of gel fluorescent poststaining with TPENCS was similar to that of the CBB poststaining. The only difference was that the composition of the staining solution was prepared by mixing 1 mL DMSO stock solution of TPENCS (5 mM) with 20 mL 10% SDS aqueous (w/v) solution, and the pH was optimized to ˜9.0 by adding 1 M sodium bicarbonate buffer. The destaining solution was 10% SDS aqueous (w/v) solution. Similar to the destaining protocol of Coomassie brilliant blue, the gel was immerged into the 10% SDS aqueous (w/v) solution and destained with gentle agitation. The destaining solution was changed every two hours and the whole destaining process was finished within six hours.
Since nearly all kinds of proteins have reactive amine groups (lysine residues) on their molecular chains, bovine serum albumin (BSA), a commonly used protein, was employed as a test sample to verify the staining effect of TPENCS. The prestained BSA was loaded onto the gel lane b and a pure BSA sample was loaded on lane c at the same time as a control. After electrophoresis, the gel fluorescent image was taken under UV excitation within the Gel Doc XR+ documentation system (FIG. 2a). […] The gel was then introduced to the poststaining procedure and the fluorescent image was again obtained (FIG. 2b).

[2] = Photoluminescence in THF/water mixtures with different water fractions (aggregation induced emission); format: physicochemical
From the text: The AIE of TPENCS is illustrated in FIG. 1. […] With water content ranging from 0-70%, the fluorescence intensity remained at a very low level. When the water concentration was in the 80-90 vol % range, a rapid and dramatic increase of the fluorescence intensity with increasing water content was observed (FIG. 1b). The PL intensity of TPENCS in the water/THF solution with a water fraction of 90 vol % was approximately 50-fold higher than that in the mixture with 70% water. The quantum efficiency of TPENCS was 52.2% in the solid state.
Similar to other AIE active molecules, TPEMBR only gave weak emission in good solvents such as THF. […] To quantify the effect of water content on the degree of fluorescent emission enhancement, the photoluminescence intensity of TPEMBR was measured where the fraction of water was increased from 0 to 90 vol %. With the water content in the range of 0-70%, the fluorescent intensity remained at a very low level. With the water fraction reaching the 80-90 vol % range, a rapid and dramatic increase of the fluorescent intensity was observed (FIG. 9b). The photoluminescence intensity of TPEMBR in the water/THF solution with a water fraction of 90 vol % was approximately 50-fold stronger than that in the mixture with 70% water. In the solid state, the quantum efficiency of TPEMBR was determined to be 31.7%.
The AIE of SITC is illustrated in FIGS. 17a and 17b. The wavelength at maximum absorption of SITC was at 363 nm and the emission maximum was at 490 nm. […] To quantify the effect of water content on the elevation of the fluorescent emission, the photoluminescence intensity of SITC was measured with concentration of water increasing from 0 to 90 vol %. With water content ranging from 0-70%, the fluorescent intensity remained at a very low level. When the water concentration was in the 80-95 vol % range, a rapid and dramatic increase of the fluorescent intensity with increasing water content was observed (FIG. 17b). The photoluminescence intensity of SITC in the water/THF solution with a water fraction of 95 vol % was approximately 50-fold higher than that in the mixture with 70% water. The quantum efficiency of SITC was 45.8% in the solid state.
(§1) Tetrahydrofuran (THF; Labscan) was distilled under nitrogen from sodium benzophenone ketyl immediately prior to use. Acrylamide was purchased from Bio-Rad. Aminoallyl-dUTP (aa-dUTP), dNTPs, DNase I (RNase-free), DNA Polymerase I, Klenow Fragment exo-, Random Hexamer Primer, Long PCR Enzyme Mix and GeneJET™ PCR Purification Kit, GeneRuler™ 100 bp Plus DNA Ladder (ready-to-use, 100-3000 bp), 6×DNA Loading Dye were purchased from Fermentas (Thermo Scientific). Deep VentR™ exo-DNA Polymerase was purchased from New England Biolabs (NEB). Synthesized oligonucleotides (primers) were purchased from Tech Drogon Limited. GelRed™ Nucleic Acid Gel Stain (10000× in water) was purchased from Biotium. Other chemicals, reagents and solvents were all purchased from Aldrich or Invitrogen. ^1H and ^13C NMR spectra were measured on a Bruker ARX 400 NMR spectrometer using CDCl3 as solvent. High-resolution mass spectra (HRMS) were taken on a Finnigan TSQ 7000 triple quadrupole spectrometer in a MALDI-TOF mode. UV spectra were measured on a Milton Roy Spectronic 3000 Array spectrophotometer. Fluorescence (FL) spectra were recorded on a Perkin-Elmer LS 55 spectrofluorometer. FL quantum yields (ΦF) of amorphous powders of siloles were measured using C-701 Time-Resolved Spectrofluorometer with the integrating sphere as accessory.
Structure of dye is confirmed by standard spectroscopic methods (FIGS. 23, 26a, and 27a). In order to confirm TPEITC is AIE-active, we investigated its fluorescence in THF/water mixtures with different water fractions. […] TPEITC molecules with hydrophobic aromatic cores precipitated and became aggregate in the nonsolvent mixture. Aggregation blocks the nonradiative relaxation channels and populates the radiative decay, thus resulting in high luminescence. […]

[3] = UV absorption of SITC for DOL calculation (Beer-Lambert law); format: physicochemical
Method: The 1061 bp template DNA was a PCR product of plasmid DNA. dTTP was replaced with increasing amount of SITC-dUTP. DOL of labeled DNA (number of dyes per 100 bases) were calculated from UV absorption base on Beer-Lambert law. The calculated molar extinction coefficient (ε) of SITC is 10277 cm^−1M^−1 and its correction factor (CF) is 2.08.

[4] = Fluorescence quantum efficiency in the solid state; format: physicochemical
From the text: as §1

bovine serum albumin (BSA), sequence (P02769 25-607): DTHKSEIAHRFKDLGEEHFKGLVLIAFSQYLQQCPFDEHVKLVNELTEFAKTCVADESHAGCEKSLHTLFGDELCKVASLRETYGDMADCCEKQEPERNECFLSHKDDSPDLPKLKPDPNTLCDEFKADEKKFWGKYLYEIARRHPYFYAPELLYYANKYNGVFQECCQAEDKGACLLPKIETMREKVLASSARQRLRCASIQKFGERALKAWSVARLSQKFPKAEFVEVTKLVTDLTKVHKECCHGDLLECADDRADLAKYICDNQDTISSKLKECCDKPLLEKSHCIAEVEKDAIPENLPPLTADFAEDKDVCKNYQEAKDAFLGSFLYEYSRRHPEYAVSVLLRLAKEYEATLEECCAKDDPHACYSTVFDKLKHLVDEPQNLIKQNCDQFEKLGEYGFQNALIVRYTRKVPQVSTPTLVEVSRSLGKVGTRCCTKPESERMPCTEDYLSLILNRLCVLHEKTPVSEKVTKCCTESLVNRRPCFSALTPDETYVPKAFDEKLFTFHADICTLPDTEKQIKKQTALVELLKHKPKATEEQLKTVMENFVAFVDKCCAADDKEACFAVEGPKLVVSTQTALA
BSA (35 Cys), sequence (P02769 25-607): as above

LOD [1]: remained the same | limit of detection (LOD) [1]: 0.2 µg
Compound: CCOc1ccc(Nc2ccc(C(=C3C=CC(=[N+](CC)Cc4cccc(S(=O)(=O)[O-])c4)C=C3)c3ccc(N(CC)Cc4cccc(S(=O)(=O)[O-])c4)cc3)cc2)cc1.[Na+] [CBB, reference compound]

fluorescence intensity (I) relative to pure THF solution (I0) ([2]; THF/water mixture, water content 90 vol %): about 36177 fold
Compound: S=C=NCc1ccc(C(=C(c2ccccc2)c2ccccc2)c2ccccc2)cc1 [TPEITC]

The remaining lines, values behind:

Compound: O=C1OC2(c3ccc(O)cc3Oc3cc(O)ccc32)c2ccc(CBr)cc21 [5-BMF, reference compound]
self-quenching effect versus dye/thiol ratio (BSA (35 Cys)): 30 times

Compound: C[Si]1(C)C(c2ccc(CN=C=S)cc2)=C(c2ccccc2)C(c2ccccc2)=C1c1ccc(CN=C=S)cc1 [SITC, 1,1-dimethyl-2,5-bis[4-(isothiocyanatemethyl)phenyl]-3,4-diphenyl silole]
emission maximum [2]: 490 nm | wavelength at maximum absorption [2]: 363 nm | photoluminescence intensity relative to the mixture with 70% water ([2]; water/THF solution, water fraction 95 vol %): approximately 50 fold | calculated molar extinction coefficient (ε) [3]: 10277 cm^−1M^−1 | correction factor (CF) [3]: 2.08 | quantum efficiency [4]: 45.8%

Compound: S=C=NCc1ccc(C(=C(c2ccccc2)c2ccc(CN=C=S)cc2)c2ccccc2)cc1 [TPENCS, 1,2-bis[4-(isothiocyanatemethyl)phenyl]-1,2-diphenylethene]
PL intensity relative to the mixture with 70% water ([2]; water/THF solution, water fraction 90 vol %): approximately 50 fold | LOD [1]: 0.1 µg | limit of detection (LOD) [1]: 0.2 µg | LOD on nitrocellulose membrane ([1]; poststaining): 1 µg | effect on protein migration ([1]; prestained versus poststained BSA bands): no significant effect on protein migration rate | LOD on nitrocellulose membrane ([1]; prestaining): 2 µg | self-quenching effect versus F/P ratio ([1]; prestaining): kept increasing | quantum efficiency [4]: 52.2%

Compound: fluorescein isothiocyanate [FITC, reference compound]
self-quenching effect versus F/P ratio ([1]; prestaining): 1000 times
